From ChEMBL document CHEMBL5576070, “The recent discovery of a promising pharmacological scaffold derived from carvacrol: A review” (Bioorg Med Chem Lett, 2024)

The compounds below were run against Cholinesterase (Homo sapiens, UniProt P06276) (assay: Inhibition of human BChE using butyrylthiocholine iodide as substrate incubated for 15 mins by spectrophotometric Ellman's method).
Chain of Cholinesterase (P06276 whole entry): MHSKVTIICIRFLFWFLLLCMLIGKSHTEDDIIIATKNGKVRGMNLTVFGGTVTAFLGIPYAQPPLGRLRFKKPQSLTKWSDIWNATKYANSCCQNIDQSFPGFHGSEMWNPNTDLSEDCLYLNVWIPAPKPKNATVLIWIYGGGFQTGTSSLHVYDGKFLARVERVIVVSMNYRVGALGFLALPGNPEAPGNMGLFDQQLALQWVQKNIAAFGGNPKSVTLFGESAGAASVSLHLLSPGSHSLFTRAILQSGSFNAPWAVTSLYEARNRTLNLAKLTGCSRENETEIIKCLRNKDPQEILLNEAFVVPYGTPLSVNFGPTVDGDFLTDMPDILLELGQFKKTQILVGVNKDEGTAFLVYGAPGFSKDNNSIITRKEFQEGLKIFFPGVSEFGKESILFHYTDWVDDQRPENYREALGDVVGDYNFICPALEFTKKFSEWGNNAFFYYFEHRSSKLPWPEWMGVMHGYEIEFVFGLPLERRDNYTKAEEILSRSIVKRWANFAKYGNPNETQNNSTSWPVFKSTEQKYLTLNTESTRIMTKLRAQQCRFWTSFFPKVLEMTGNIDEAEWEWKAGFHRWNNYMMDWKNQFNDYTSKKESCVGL

SMILES	IC50 [nM]
Cc1ccc(C(C)C)cc1OCC(=O)N1Cc2ccccc2C1	50
Cc1ccc(C(C)C)cc1OCC(=O)NCCC1=CCCCC1	50
CNC(=O)COc1cc(C(C)C)ccc1C	50
Cc1ccc(C(C)C)cc1OCC(=O)NCc1ccc2c(c1)OCO2	50
CCCNC(=O)COc1cc(C(C)C)ccc1C	50
Cc1ccc(C(C)C)cc1OCC(=O)NCCNc1cccc2cccnc12	50
Cc1ccc(C(C)C)cc1OCC(=O)NCCN1CCN(C)CC1	50
Cc1ccc(C(C)C)cc1OCC(=O)NC1CCCCC1	50
Cc1ccc(C(C)C)cc1OCC(=O)N1CCCCC1	50
Cc1ccc(C(C)C)cc1OCC(=O)NCCN1CCCC1	50
CCN(CC)C(=O)COc1cc(C(C)C)ccc1C	50
Cc1ccc(C(C)C)cc1OCC(=O)NCCN1CCOCC1	50
COc1ccc(CCNC(=O)COc2cc(C(C)C)ccc2C)cc1OC	50

These compounds were tested on Proteus vulgaris (assay: Antimicrobial activity against Proteus vulgaris NCIM 2813 assessed as zone of inhibition incubated for 24 hrs by agar diffusion method).
Format: functional

SMILES	inhibition zone (IZ) [mm]
Cc1ccc(C(C)C)cc1OCC(=O)Nc1cccc(Cl)c1	16
Cc1ccc(C(C)C)cc1OCC(=O)Nc1ccc(Cl)cc1	10
CCCCCCCNC(=O)COc1cc(C(C)C)ccc1C	7

These compounds were tested against Mushroom tyrosinase (Agaricus bisporus, UniProt O42713+Q00024+C7FF04+C7FF05) (assay: Inhibition of mushroom tyrosinase using L-DOPA as substrate by spectrophotometric analysis).
Format: protein assay

IC50 [nM]	SMILES
7700	Cc1ccc(C(C)C)cc1OC(=O)COC(=O)/C=C/c1ccccc1
14900	Cc1ccc(C(C)C)cc1OC(=O)COC(=O)c1ccc(O)cc1

These compounds were tested on Bacillus subtilis (assay: Antibacterial activity against Bacillus subtilis assessed as zone of inhibition).
Format: functional

SMILES	inhibition zone (IZ) [mm]
Cc1ccc(C(C)C)cc1OCC(=O)Nc1cccc(Cl)c1	21
Cc1ccc(C(C)C)cc1OCC(=O)Nc1ccc(Cl)cc1	18
CCCCCCCNC(=O)COc1cc(C(C)C)ccc1C	6

The compounds below were run against Acetylcholinesterase (Homo sapiens, UniProt P22303) (assay: Inhibition of AChE (unknown origin)).
Chain of Acetylcholinesterase (P22303 whole entry): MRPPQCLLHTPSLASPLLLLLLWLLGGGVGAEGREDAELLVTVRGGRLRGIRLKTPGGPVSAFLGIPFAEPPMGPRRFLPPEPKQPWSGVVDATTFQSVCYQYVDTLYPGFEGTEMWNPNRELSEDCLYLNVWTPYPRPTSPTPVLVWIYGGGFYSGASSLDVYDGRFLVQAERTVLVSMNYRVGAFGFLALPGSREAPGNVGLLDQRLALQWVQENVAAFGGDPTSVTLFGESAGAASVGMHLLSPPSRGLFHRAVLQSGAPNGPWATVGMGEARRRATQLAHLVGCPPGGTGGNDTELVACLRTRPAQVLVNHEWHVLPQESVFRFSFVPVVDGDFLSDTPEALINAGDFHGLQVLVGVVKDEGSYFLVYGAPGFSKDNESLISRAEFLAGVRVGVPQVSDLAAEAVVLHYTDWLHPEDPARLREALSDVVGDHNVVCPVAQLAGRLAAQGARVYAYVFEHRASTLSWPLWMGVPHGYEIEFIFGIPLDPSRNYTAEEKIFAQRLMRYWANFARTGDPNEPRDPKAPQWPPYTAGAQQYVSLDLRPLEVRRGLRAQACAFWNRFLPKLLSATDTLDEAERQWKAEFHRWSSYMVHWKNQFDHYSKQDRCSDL

SMILES	IC50 [nM]
Cc1ccc(C(C)C)cc1OCC(=O)N1Cc2ccccc2C1	1930
Cc1ccc(C(C)C)cc1OCC(=O)NCCC1=CCCCC1	1930
CNC(=O)COc1cc(C(C)C)ccc1C	1930
Cc1ccc(C(C)C)cc1OCC(=O)NCc1ccc2c(c1)OCO2	1930
CCCNC(=O)COc1cc(C(C)C)ccc1C	1930
Cc1ccc(C(C)C)cc1OCC(=O)NCCNc1cccc2cccnc12	1930
Cc1ccc(C(C)C)cc1OCC(=O)NCCN1CCN(C)CC1	1930
Cc1ccc(C(C)C)cc1OCC(=O)NC1CCCCC1	1930
Cc1ccc(C(C)C)cc1OCC(=O)N1CCCCC1	1930
Cc1ccc(C(C)C)cc1OCC(=O)NCCN1CCCC1	1930
CCN(CC)C(=O)COc1cc(C(C)C)ccc1C	1930
Cc1ccc(C(C)C)cc1OCC(=O)NCCN1CCOCC1	1930
COc1ccc(CCNC(=O)COc2cc(C(C)C)ccc2C)cc1OC	1930

These compounds were tested on Staphylococcus aureus (assay: Antibacterial activity against Staphylococcus aureus ATCC 25923 assessed as zone of inhibition by agar diffusion method).
Format: functional

SMILES	inhibition zone (IZ) [mm]
Cc1ccc(C(C)C)cc1OCC(=O)Nc1cccc(Cl)c1	17
Cc1ccc(C(C)C)cc1OCC(=O)Nc1ccc(Cl)cc1	20
